How the values were obtained:
[1] = target: T1, unphosphorylated T315I Abl kinase domain (Mus musculus, UniProt P00520, T315I); test: c-Abl T315I 0P bioassay (pyruvate kinase/lactate dehydrogenase coupled enzyme assay); type: biochemical; conditions: zero phosphorylation state (0P), 10 μM ATP, read-out: AbI T315I 0P IC50
T1 construct: purified and unphosphorylated T315I Abl kinase domain; made in house; host or cells: E. coli BL21(DE3) (Codon+RIL or pSA0145 strain)
T1 sequence (P00520 242-493 T315I limits assumed): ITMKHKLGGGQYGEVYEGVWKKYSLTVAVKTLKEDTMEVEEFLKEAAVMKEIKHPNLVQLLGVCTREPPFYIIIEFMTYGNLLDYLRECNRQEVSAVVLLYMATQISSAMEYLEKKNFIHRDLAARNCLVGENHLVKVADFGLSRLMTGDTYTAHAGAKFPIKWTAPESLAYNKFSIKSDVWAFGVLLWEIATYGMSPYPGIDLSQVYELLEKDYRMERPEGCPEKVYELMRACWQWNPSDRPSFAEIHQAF

[2] = target: Ba/F3 cells, ABL1 WT (Homo sapiens, UniProt P00519); test: 96-well XTT cell survival assay, Ba/F3 ABL1 WT; type: cell-based; conditions: 72 hours, read-out: ABL1 WT XTT [Ba/F3] IC50
Outline: (§1)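 Ba/F3 cells carrying wild-type or T315I ABL1 were seeded at 5000-8000 per well with graded compound concentrations in duplicate and grown 72 hours at 37° C. Survival was read by XTT/PMS reduction after a further 2-6 h, as absorbance at 405 nm with 650 nm background correction.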

[3] = target: Ba/F3 cells, ABL1 T315I (Homo sapiens, UniProt P00519, T315I, cells depend on it); test: 96-well XTT cell survival assay, Ba/F3 ABL1 T315I; type: cell-based; conditions: 72 hours, read-out: ABL1 T315I XTT [Ba/F3] IC50
Outline: as §1

Row | Compound | IC50 [1] [µM] | GI50 [2] [µM] | GI50 [3] [µM]
1 | COc1ccccc1-c1n[nH]c2ncc(-c3cccc(C(O)C(=O)NC4CCN(C)CC4)c3)cc12 (stereo not drawn) | < 0.05 | > 1 | > 1
2 | COC(=O)C1=C(C)NC(=O)NC1c1cccc(-c2cnc3[nH]cc(-c4ccccc4OC)c3c2)c1 (stereo not drawn) | < 0.05 | > 1 | > 1
3 | COc1ccccc1-c1c[nH]c2ncc(-c3cccc(C4NC(=O)NC(C)=C4C(=O)N(C)C)c3)cc12 (stereo not drawn) | < 0.05 | > 1 | > 1
4 | COc1ccccc1-c1n[nH]c2ncc(-c3cccc(C(O)C(=O)N(C)CCN(C)C)c3)cc12 (stereo not drawn) | < 0.05 | < 1 | < 1
5 | CCN(CC)CCN(CC)C(=O)C(O)c1cccc(-c2cnc3[nH]nc(-c4ccccc4OC)c3c2)c1 (stereo not drawn) | < 0.05 | < 1 | < 1
6 | COc1ccccc1-c1n[nH]c2ncc(-c3cccc(C(O)C(=O)N4CCC(O)C4)c3)cc12 (stereo not drawn) | < 0.05 | > 1 | > 1
7 | COc1ccccc1-c1n[nH]c2ncc(-c3cccc(C(O)C(=O)N4CCC(O)CC4)c3)cc12 (stereo not drawn) | < 0.05 | > 1 | > 1
8 | COc1ccccc1-c1n[nH]c2ncc(-c3cccc(C(O)C(=O)N4CCC(N(C)C)C4)c3)cc12 (stereo not drawn) | < 0.05 | < 1 | < 1
9 | COc1ccccc1-c1n[nH]c2ncc(-c3cccc(C(O)C(=O)N4CCC[C@@H]4CO)c3)cc12 (stereo partly drawn) | < 0.05 | < 1 | < 1
10 | COC[C@H]1CCCN1C(=O)C(O)c1cccc(-c2cnc3[nH]nc(-c4ccccc4OC)c3c2)c1 (stereo partly drawn) | < 0.05 | < 1 | > 1
11 | COc1ccccc1-c1n[nH]c2ncc(-c3cccc(C(C)O)c3)cc12 (stereo not drawn) | < 0.05 | < 1 | < 1
12 | COc1ccccc1-c1n[nH]c2ncc(-c3cccc([C@@H](C)O)c3)cc12 | < 0.05 | < 1 | < 1
13 | COc1ccccc1-c1n[nH]c2ncc(-c3cccc(C(C)(O)C(=O)N(C)C)c3)cc12 (stereo not drawn) | < 0.05 | > 1 | > 1
14 | COc1ccccc1-c1n[nH]c2ncc(-c3cccc(C(C)(O)C(=O)N(C)CCN(C)C)c3)cc12 (stereo not drawn) | < 0.05 | > 1 | > 1
15 | COc1ccccc1-c1n[nH]c2ncc(-c3cccc(C(C)(O)C(=O)N4CC(O)C4)c3)cc12 (stereo not drawn) | < 0.05 | > 1 | > 1
16 | COc1ccccc1-c1n[nH]c2ncc(-c3cccc(C(OC)C(=O)N(C)C)c3)cc12 (stereo not drawn) | < 0.05 | < 1 | < 1
17 | CN(C)C(=O)C(O)c1cncc(-c2cnc3[nH]cc(-c4cncnc4)c3c2)c1 (stereo not drawn) | > 0.5 | > 1 | > 1
18 | CN(C)C(=O)C(O)c1cncc(-c2cnc3[nH]cc(-c4cccc(C(F)(F)F)c4)c3c2)c1 (stereo not drawn) | < 0.05 | > 1 | > 1
19 | CN(C)C(=O)C(O)c1cncc(-c2cnc3[nH]cc(-c4ccc(C#N)cc4)c3c2)c1 (stereo not drawn) | 0.05 to 0.5 | > 1 | > 1
20 | CN(C)C(=O)C(O)c1cncc(-c2cnc3[nH]cc(-c4ccc(OC(F)(F)F)cc4)c3c2)c1 (stereo not drawn) | 0.05 to 0.5 | > 1 | > 1

Row | Compound | IC50 [1] [µM] | GI50 [2] [µM] | GI50 [3] [µM]
21 | CN(C)C(=O)C(O)c1cncc(-c2cnc3[nH]cc(-c4ccc5c(c4)OCO5)c3c2)c1 (stereo not drawn) | < 0.05 | < 1 | > 1
22 | CN(C)C(=O)C(O)c1cncc(-c2cnc3[nH]cc(-c4ccc(CO)cc4)c3c2)c1 (stereo not drawn) | < 0.05 | > 1 | > 1
23 | CN(C)C(=O)C(O)c1cncc(-c2cnc3[nH]cc(-c4ccc(N(C)C)cc4)c3c2)c1 (stereo not drawn) | 0.05 to 0.5 | > 1 | > 1
24 | CN(C)C(=O)C(O)c1cncc(-c2cnc3[nH]cc(-c4ccc(C(N)=O)cc4)c3c2)c1 (stereo not drawn) | < 0.05 | > 1 | > 1
25 | CN(C)C(=O)C(O)c1cncc(-c2cnc3[nH]cc(-c4cccc5c4OC(F)(F)O5)c3c2)c1 (stereo not drawn) | < 0.05 | < 1 | > 1
26 | CN(C)C(=O)C(O)c1cncc(-c2cnc3[nH]cc(-c4ccn[nH]4)c3c2)c1 (stereo not drawn) | < 0.05 | > 1 | > 1
27 | CN(C)C(=O)C(O)c1cncc(-c2cnc3[nH]cc(-c4ccnn4CC(F)(F)F)c3c2)c1 (stereo not drawn) | > 0.5 | > 1 | > 1
28 | COc1ccccc1-c1c[nH]c2ncc(-c3cnc(N)c(C(O)C(=O)N(C)C)c3)cc12 (stereo not drawn) | < 0.05 | < 1 | < 1
29 | CN(C)C(=O)C(O)c1cncc(-c2cnc3[nH]cc(-c4ccno4)c3c2)c1 (stereo not drawn) | < 0.05 | > 1 | > 1
30 | CN(C)C(=O)C(O)c1cncc(-c2cnc3[nH]cc(-c4ccnn4CCO)c3c2)c1 (stereo not drawn) | 0.05 to 0.5 | > 1 | > 1
31 | COc1ccccc1-c1c[nH]c2ncc(-c3cncc(C(O)C4CC4)c3)cc12 (stereo not drawn) | < 0.05 | < 1 | < 1
32 | COc1ccccc1-c1c[nH]c2ncc(-c3cncc(C(O)CC(C)C)c3)cc12 (stereo not drawn) | < 0.05 | < 1 | < 1
33 | CN(C)C(=O)C(O)c1cncc(-c2cnc3[nH]cc(-c4cnc(N)s4)c3c2)c1 (stereo not drawn) | < 0.05 | > 1 | > 1
34 | CN(C)C(=O)C(O)c1cc(-c2cnc3[nH]cc(-c4ccccc4F)c3c2)cnc1N (stereo not drawn) | < 0.05 | < 1 | < 1
35 | CN(C)C(=O)C(O)c1cncc(-c2cnc3[nH]cc(-c4ccnn4-c4ccccc4)c3c2)c1 (stereo not drawn) | < 0.05 | < 1 | > 1
36 | Cc1n[nH]c(C)c1-c1c[nH]c2ncc(-c3cncc(C(O)C(=O)N(C)C)c3)cc12 (stereo not drawn) | < 0.05 | > 1 | > 1
37 | COc1ccccc1-c1c[nH]c2ncc(-c3cncc(C(O)C(N)=O)c3)cc12 (stereo not drawn) | < 0.05 | > 1 | > 1
38 | COc1ccccc1-c1n[nH]c2ncc(-c3cccc(CO)c3)cc12 | > 0.5 | < 1 | < 1
39 | COc1ccccc1-c1n[nH]c2ncc(-c3cccc(CO)n3)cc12 | < 0.05 | < 1 | > 1

More lines, main results first:

Row | IC50 [1] [µM] | Compound | GI50 [2] [µM] | GI50 [3] [µM]
40 | < 0.05 | CN(C)C(=O)C(O)c1cncc(-c2cnc3[nH]cc(-c4ccccc4)c3c2)c1 (stereo not drawn) | < 1 | < 1
41 | < 0.05 | Cc1cccc(-c2c[nH]c3ncc(-c4cncc(C(O)C(=O)N(C)C)c4)cc23)c1 (stereo not drawn) | < 1 | < 1
42 | < 0.05 | COc1ccc(-c2c[nH]c3ncc(-c4cncc(C(O)C(=O)N(C)C)c4)cc23)cc1 (stereo not drawn) | > 1 | > 1
43 | 0.05 to 0.5 | CC(=O)c1ccccc1-c1c[nH]c2ncc(-c3cncc(C(O)C(=O)N(C)C)c3)cc12 (stereo not drawn) | > 1 | > 1
44 | < 0.05 | CN(C)C(=O)C(O)c1cncc(-c2cnc3[nH]cc(-c4cccc(F)c4F)c3c2)c1 (stereo not drawn) | < 1 | < 1
45 | 0.05 to 0.5 | CN(C)C(=O)C(O)c1cncc(-c2cnc3[nH]cc(-c4ccncc4)c3c2)c1 (stereo not drawn) | > 1 | > 1
46 | > 0.5 | CN(C)C(=O)C(O)c1cncc(-c2cnc3[nH]cc(-c4cccc(S(C)(=O)=O)c4)c3c2)c1 (stereo not drawn) | > 1 | > 1
47 | < 0.05 | CN(C)C(=O)C(O)c1cncc(-c2cnc3[nH]cc(-c4ccc(F)cc4)c3c2)c1 (stereo not drawn) | > 1 | > 1
48 | 0.05 to 0.5 | CN(C)C(=O)C(O)c1cncc(-c2cnc3[nH]cc(-c4cccnc4)c3c2)c1 (stereo not drawn) | > 1 | > 1
49 | < 0.05 | CN(C)C(=O)C(O)c1cncc(-c2cnc3[nH]cc(-c4ccccc4F)c3c2)c1 (stereo not drawn) | < 1 | < 1
50 | < 0.05 | CCc1ccccc1-c1c[nH]c2ncc(-c3cncc(C(O)C(=O)N(C)C)c3)cc12 (stereo not drawn) | < 1 | < 1
51 | < 0.05 | CN(C)C(=O)C(O)c1cncc(-c2cnc3[nH]cc(-c4ccccc4OC(F)(F)F)c3c2)c1 (stereo not drawn) | < 1 | > 1
52 | < 0.05 | CSc1ccccc1-c1c[nH]c2ncc(-c3cncc(C(O)C(=O)N(C)C)c3)cc12 (stereo not drawn) | < 1 | < 1
53 | < 0.05 | COc1ncccc1-c1c[nH]c2ncc(-c3cncc(C(O)C(=O)N(C)C)c3)cc12 (stereo not drawn) | < 1 | > 1
54 | < 0.05 | CN(C)C(=O)C(O)c1cncc(-c2cnc3[nH]cc(-c4ccccc4Cl)c3c2)c1 (stereo not drawn) | < 1 | < 1
55 | < 0.05 | CN(C)C(=O)C(O)c1cncc(-c2cnc3[nH]cc(-c4cccc(N(C)C)c4)c3c2)c1 (stereo not drawn) | < 1 | > 1
56 | < 0.05 | Cc1n[nH]cc1-c1c[nH]c2ncc(-c3cncc(C(O)C(=O)N(C)C)c3)cc12 (stereo not drawn) | > 1 | > 1
57 | < 0.05 | CN(C)C(=O)C(O)c1cncc(-c2cnc3[nH]cc(-c4ccccc4OC4CC4)c3c2)c1 (stereo not drawn) | < 1 | < 1
